Measured values reported in EP1206474B1, “SULFONYLPHENYLPYRAZOLE COMPOUNDS USEFUL AS COX-2 INHIBITORS” (ABBOTT LABORATORIES, priority 1999, dated 2001).
pIC50: −log10 of the molar value. Blank lines part the entries; values can stand above or below the molecule they belong to.

Legend:
[1] = system: Human amnionic WISH cells; experiment: IL-1β induced PGE2 production in WISH cells; assay type: cell-based; details: IL-1β induced PGE2, 18 hour incubation; for pIC50: parenthetical value, read-out: WISH (parenthetical value, IC50 by analogy with Table 1); for inhibition at 1 µM: at 1000 nM
Procedure: (§1) EIA reagents for prostaglandin determination were purchased from Perseptive Diagnostics, (Cambridge, MA). Prostaglandin E2 (PGE2) levels in lavage fluids were determined after the samples were dried under nitrogen and reconstituted with assay buffer. PGE2 levels in enzyme assays or cell culture media were measured against standards prepared in the same milieu. The immunoassays were conducted as recommended by the manufacturer. The EIA was conducted in 96 well microtiter plates (Nunc Roskilde, Denmark) and optical density was measured using a microplate reader (Vmax, Molecular Devices Corp., Menlo Park, CA).
Human amnionic WISH cells were grown to 80% confluence in 48 well plates. Following removal of the growth medium and two washings with Gey's Balanced Salt Solution, 5 ng IL-1β/ml (UBI, Lake Placid, NY) was added to the cells with or without test compound in DMSO (0.01% v/v) in Neuman-Tytell Serumless Medium (GIBCO, Grand Island, NY). Following an 18 hour incubation to allow for the maximal induction of PGHS-2, the conditioned medium was removed and assayed for PGE2 content by EIA analysis as described above.
WISH cell values indicate percent inhibition at the particular nanomolar dose level.

[2] = molecular target: T1, recombinant human Cox-2 (r-hu Cox-2) (Homo sapiens, UniProt P35354); experiment: Recombinant human PGHS-2 (r-hu Cox-2) enzyme assay, PGE2 by EIA; assay type: biochemical; details: for pIC50: parenthetical values indicate IC50, read-out: r-hu COX2 IC50 (parenthetical values); for inhibition at 0.1 µM: at 100 nM; for inhibition at 0.1 µM / inhibition at 10 µM: read-out: r-hu COX2 percent inhibition; for inhibition at 10 µM: at 10000 nM
T1 construct: made in house; host or cells: baculovirus/Sf9 insect cells (microsomes)
T1 sequence (P35354 18-604): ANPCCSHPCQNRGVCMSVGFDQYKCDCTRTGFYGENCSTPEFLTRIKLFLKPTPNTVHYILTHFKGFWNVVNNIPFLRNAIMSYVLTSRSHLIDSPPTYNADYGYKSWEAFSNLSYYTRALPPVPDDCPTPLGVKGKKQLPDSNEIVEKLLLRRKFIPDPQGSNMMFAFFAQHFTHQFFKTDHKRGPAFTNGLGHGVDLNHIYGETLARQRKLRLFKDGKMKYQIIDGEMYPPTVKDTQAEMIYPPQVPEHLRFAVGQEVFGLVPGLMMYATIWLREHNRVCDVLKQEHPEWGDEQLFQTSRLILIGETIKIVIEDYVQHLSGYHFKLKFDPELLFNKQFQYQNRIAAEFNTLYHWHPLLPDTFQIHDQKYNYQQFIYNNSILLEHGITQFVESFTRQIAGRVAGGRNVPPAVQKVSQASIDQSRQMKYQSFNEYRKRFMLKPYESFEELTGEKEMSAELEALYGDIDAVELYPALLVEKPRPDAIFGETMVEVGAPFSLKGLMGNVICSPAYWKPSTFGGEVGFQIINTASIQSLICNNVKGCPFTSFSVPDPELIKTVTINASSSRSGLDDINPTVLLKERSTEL
Procedure: (§2) To compare the mean responses of the treatment groups, analysis of variance was applied. Percent inhibition values were determined by comparing the individual treatment mean values to the mean of the control group. Linear regression was used to estimate IC50's/ED50's in appropriate assays.
as §1
(§3) Inhibition of prostaglandin biosynthesis in vitro was evaluated using recombinant human Cox-1 (r-hu Cox-1) and Cox-2 (r-hu Cox-2) enzyme assays. […] The reaction was allowed to run for 2.5 minutes at room temperature prior to quenching with HCl and neutralization with NaOH. PGE2 production in the presence and absence of the drug was determined by EIA analysis. The EIA was conducted in 96 well microtiter plates (Nunc Roskilde, Denmark) and optical density was measured using a microplate reader (Vmax, Molecular Devices Corp., Menlo Park, CA). EIA reagents for prostaglandin determination were purchased from Perseptive Diagnostics (Cambridge, MA). PGE2 levels were measured against standards prepared in the same milieu. The immunoassays were conducted as recommended by the manufacturer. The compounds are designated by the Example Number. […] Values for Cox-2 inhibition that are parenthetical indicate IC50 values.

[3] = molecular target: T2, recombinant human Cox-1 (r-hu Cox-1) (Homo sapiens, UniProt P23219); experiment: Recombinant human PGHS-1 (r-hu Cox-1) enzyme assay, PGE2 by EIA; assay type: biochemical; details: read-out: r-hu COX1 percent inhibition
T2 construct: made in house; host or cells: baculovirus/Sf9 insect cells (microsomes)
Procedure: as §2, §1, §3

[4] = system: male adrenalectomized Sprague-Dawley rats; experiment: Rat carrageenan pleural inflammation (CIP) model; assay type: in vivo; details: 10 milligrams per kilogram body weight, oral, 30 minutes prior to carrageenan; lavage four hours later; inhibition of prostaglandin biosynthesis
Procedure: For oral administration, test compounds were suspended on the day of use in 100% polyethyleneglycol (PEG 400) with a motorized homogenizer equipped with a Teflon-coated pestle (TRI-R Instrument, Jamaica, NY).
as §2, §1
Pleural inflammation was induced in male adrenalectomized Sprague-Dawley rats following the method of Vinegar et al., Fed. Proc. 1976, 35, 2447-2456. […] Eicosanoids were determined by EIA as described above. […]

[5] = Homo sapiens, read-out: WISH percent inhibition

T2 sequence (P23219 24-599): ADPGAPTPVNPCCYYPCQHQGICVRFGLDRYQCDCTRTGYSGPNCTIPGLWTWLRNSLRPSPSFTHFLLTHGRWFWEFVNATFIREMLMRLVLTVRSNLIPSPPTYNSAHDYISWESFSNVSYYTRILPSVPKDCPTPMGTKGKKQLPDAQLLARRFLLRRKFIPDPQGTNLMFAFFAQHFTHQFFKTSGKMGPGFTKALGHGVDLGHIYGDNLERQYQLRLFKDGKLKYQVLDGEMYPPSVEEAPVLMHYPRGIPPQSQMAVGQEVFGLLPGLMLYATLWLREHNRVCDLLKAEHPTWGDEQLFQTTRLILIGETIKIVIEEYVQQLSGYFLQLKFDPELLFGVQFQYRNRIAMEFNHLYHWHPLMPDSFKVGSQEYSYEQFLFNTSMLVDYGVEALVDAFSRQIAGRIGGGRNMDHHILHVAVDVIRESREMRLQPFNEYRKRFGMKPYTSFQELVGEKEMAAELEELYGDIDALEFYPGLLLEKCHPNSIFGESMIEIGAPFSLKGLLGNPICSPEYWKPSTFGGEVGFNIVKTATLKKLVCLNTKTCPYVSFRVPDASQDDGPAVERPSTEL

SMILES: Cc1oc2c(-c3ccc(F)cc3)c(-c3ccc(S(C)(=O)=O)cc3)nn2c1-c1ccccc1 [Example 41, 7-(4-Fluorophenyl)-2-methyl-6-(4-(methylsulphonyl)phenyl)-3-phenylpyrazolo[5,1-b][1,3]oxazole]
WISH percent inhibition ([1]; at 0.1 (nM)): 33%
WISH percent inhibition ([1]; at 1 (nM)): 52%

SMILES: Cc1c(C#N)oc2c(-c3ccc(F)cc3)c(-c3ccc(S(C)(=O)=O)cc3)nn12 [Example 54, 2-Cyano-7-(4-fluorophenyl)-3-methyl-6-(4-(methylsulphonyl)phenyl)pyrazolo[5,1-b][1,3]oxazole]
pIC50 ([1]; Homo sapiens): 9.70

SMILES: CC=CC(=O)c1oc2c(-c3ccc(F)cc3)c(-c3ccc(S(C)(=O)=O)cc3)nn2c1C [Example 58, 1-[7-(4-Fluorophenyl)-3-methyl-6-(4-(methylsulphonyl)phenyl)pyrazolo[5,1-b][1,3]oxazol-2-yl]but-2-en-1-one]
WISH percent inhibition ([1]; at 0.1 (nM)): 84 @ 0.1%

SMILES: CS(=O)(=O)c1ccc(-c2nn3c(C4C5CC6CC(C5)CC4C6)coc3c2-c2ccc(F)cc2)cc1 (stereo not shown) [Example 39, 3-(2-Adamantyl)-7-(4-fluorophenyl)-6-(4-(methylsulphonyl)phenyl)pyrazolo[5,1-b][1,3]oxazole]
WISH percent inhibition ([1]; at 0.1 (nM)): 38%
WISH percent inhibition ([1]; at 1 (nM)): 95%

SMILES: CS(=O)(=O)c1ccc(-c2nn3c(c2-c2ccc(F)cc2)OCC3)cc1 [Example 5, 7-(4-Fluorophenyl)-6-(4-(methylsulphonyl)phenyl)-2,3-dihydropyrazolo[5,1-b][1,3]oxazole]
inhibition at 1 µM [1, 5]: 33%

SMILES: CS(=O)(=O)c1ccc(-c2nn3c(-c4ccccc4)coc3c2-c2ccc(F)cc2)cc1 [Example 37, 7-(4-Fluorophenyl)-6-(4-(methylsulphonyl)phenyl)-3-phenylpyrazolo[5,1-b][1,3]oxazole]
CIP Inh @10mpk [4]: 0%

SMILES: CS(=O)(=O)c1ccc(-c2nn3c(c2-c2ccc(F)cc2)OCC=CC3)cc1 [Example 4, 3-(4-Fluorophenyl)-2-(4-methylsulponylphenyl) -5,8-dihydropyrazolo[5,1-b][1,3]oxazepine]
inhibition at 10 µM [2]: 62%
inhibition at 100 µM [3]: 12%

SMILES: CS(=O)(=O)c1ccc(-c2nn3c(c2-c2ccc(F)cc2)OCc2ccccc2-3)cc1 [Example 6, 3-(4-Fluorophenyl)-2-(4-(methylsulphonyl)phenyl)-5H-pyrazolo[1,5-b][1,3]-benzoxazine]
inhibition at 0.1 µM [2]: 82%
inhibition at 100 µM [3]: 25%

Now from value to molecule, other results behind:

pIC50 ([1]; Homo sapiens): 9.68
pIC50 [2]: 8.70
inhibition at 100 µM [3]: 91%
SMILES: CCc1coc2c(-c3ccc(F)cc3)c(-c3ccc(S(N)(=O)=O)cc3)nn12 [Example 62, 6-(4-(aminosulphonyl)phenyl)-3-Ethyl-7-(4-fluorophenyl)pyrazolo[5,1-b][1,3]oxazole]

inhibition at 0.1 µM [2]: 88%
inhibition at 10 µM ([3]; at 10 µM): 99%
SMILES: CC(C)(C)c1coc2c(-c3ccc(F)cc3)c(-c3ccc(S(N)(=O)=O)cc3)nn12 [Example 55]

pIC50 [2]: 6.14
inhibition at 100 µM [3]: 4%
SMILES: CS(=O)(=O)c1ccc(-c2nn3c(c2-c2ccc(F)cc2)OCCC3)cc1 [Example 1, 3-(4-Fluorophenyl)-2-(4-(methylsulphonyl)phenyl)-6,7-dihydro-5H-pyrazolo[5,1-b][1,3]oxazine]
inhibition at 1 µM [1, 5]: 19%

inhibition at 0.1 µM [2]: 86%
inhibition at 100 µM [3]: 23%
SMILES: CS(=O)(=O)c1ccc(-c2nn3c4c(oc3c2-c2ccc(F)cc2)CCCC4)cc1 [Example 42, 3-(4-Fluorophenyl)-2-(4-(methylsulphonyl)phenyl)-5,6,7,8-tetrahydropyrazolo[5,1-b][1,3]benzoxazole]
WISH percent inhibition ([1]; at 0.01 (nM)): 37%
WISH percent inhibition ([1]; at 0.1 (nM)): 81%

pIC50 [2]: 7.05
inhibition at 100 µM [3]: 20%
SMILES: CS(=O)(=O)c1ccc(-c2nn3c(c2-c2ccc(F)cc2)OCc2ccccc2C3)cc1 [Example 3]
inhibition at 0.01 µM ([1]; Homo sapiens, at 10 nM, read-out: WISH percent inhibition): 43%
CIP Inh @10mpk [4]: 3%

inhibition at 0.1 µM [2]: 94%
inhibition at 100 µM [3]: 23%
SMILES: CCc1coc2c(-c3ccc(F)cc3)c(-c3ccc(S(C)(=O)=O)cc3)nn12 [Example 61, 3-Ethyl-7-(4-fluorophenyl)-6-(4-(methylsulphonyl)phenyl)pyrazolo[5,1-b][1,3]oxazole]

inhibition at 10 µM [2]: 57%
inhibition at 100 µM [3]: 9%
SMILES: CS(=O)(=O)c1ccc(-c2nn3c(c2-c2ccc(F)cc2)OCCCC3)cc1 [Example 2, 3-(4-Fluorophenyl)-2-(4-(methylsulphonyl)phenyl)-5,6,7,8-tetrahydropyrazolo[5,1-b][1,3]oxazepine]

inhibition at 0.1 µM [2]: 51%
inhibition at 100 µM [3]: 96%
SMILES: Cc1c(C#N)oc2c(-c3ccc(F)cc3)c(-c3ccc(S(N)(=O)=O)cc3)nn12 [Example 59, 6-(4-(Aminosulphonyl)phenyl)-2-cyano-7-(4-Fluorophenyl)-3-methyl-pyrazolo[5,1-b][1,3]oxazole]
